According to article PMC8809408 (Frontiers in Pharmacology, 2022):
Entries after “also recorded” stand apart in the source; their conditions may differ. Like-named read-outs stand apart in the source and are kept apart here.

Legend:
SARS-CoV-2 (B.1) = assay type: cell-based
TMPRSS2 [1] = assay type: cell-based, human
in vitro = conditions: human
[2] = system: HEK293T-ACE2-TMPRSS2 cells
ACE2 [3] = assay type: cell-based, human
Sigma-1 receptor (S1R) = conditions: cited from earlier work
Zaire Ebola virus (EBOV) = conditions: cited from earlier work
COVID-19 [4] = conditions: COVID-19 patients, treatment for 20 days ref Hoertel, et al., 2021b; cited from earlier work
[5] = samples collected from pilot fatalities ref Johnson et al., 2007; cited from earlier work
[6] = system: SARS-CoV-2 B.1.351 (beta); assay type: cell-based
[7] = system: SARS-CoV-2 B.1.617.2 (delta); assay type: cell-based
[8] = system: SARS-CoV-2 B.1.1.7 (alpha); assay type: cell-based
ACE2 [9] = assay type: cell-based, human; remark: listed apart in the source
TMPRSS2 [10] = assay type: cell-based, human; remark: listed apart in the source
COVID-19 [11] = conditions: follow up randomized controlled trial ref Reis et al., 2021; cited from earlier work
S2R = conditions: ref Robson et al., 2012; cited from earlier work
[12] = ref Narita et al., 1996, Sukhatme et al., 2021

| Structure (SMILES) | CC50 (in vitro) | viability of infected Calu-1 cells (ATP level) (Calu-1 cells) | cell viability (ATP level) in non-infected and infected cells [2] | binding to S1R (Sigma-1 receptor (S1R); [12]) | genome copies of SARS-CoV-2 (qRT-PCR) (SARS-CoV-2 (B.1)) | infectious virus particles (TCID50 assay) (SARS-CoV-2 (B.1)) | further results |
| --- | --- | --- | --- | --- | --- | --- | --- |
| CN(C)CCCN1c2ccccc2Sc2ccc(Cl)cc21 [Chlorpromazine] | 15.9 µM | slight but significant reduction in the viability | Reduction |  |  |  | amount of infectious virus (TCID50 assay) (SARS-CoV-2 (B.1)): failed to observe diminished amount of infectious virus; total amount of virus / genome copy number (qRT-PCR) (SARS-CoV-2 (B.1)): able to reduce the total amount of virus; TMPRSS2 mRNA level (TMPRSS2 [1]): remained ineffective; ACE2 mRNA level (ACE2 [3]): induced a reduction of this target |
| CN(C)CCCC1(c2ccc(F)cc2)OCc2cc(C#N)ccc21 (stereo not shown) [Citalopram] | 274 µM | decreased the cell viability | Reduction | bind to S1R | clearly reduced | clearly reduced |  |
| CN(C)CCCN1c2ccccc2CCc2ccc(Cl)cc21 [Clomipramine] | 65.7 µM | decreased the cell viability | Reduction |  | clearly reduced | clearly reduced | TMPRSS2 mRNA level (TMPRSS2 [1]): remained ineffective; Zaire Ebola virus (EBOV) entry to target cells (Zaire Ebola virus (EBOV)): reduce the Zaire Ebola virus (EBOV) entry; ACE2 mRNA level (ACE2 [3]): induced a reduction of this target |
| CNCCCN1c2ccccc2CCc2ccccc21 [Desipramine] | 68.9 µM |  | Reduction | bind to S1R |  |  |  |
| CNCCC(Oc1ccc(C(F)(F)F)cc1)c1ccccc1 (stereo not shown) [Fluoxetine] | 41.5 µM | decreased the cell viability | Reduction | bind to S1R | clearly reduced | clearly reduced | risk of intubation or death by COVID-19 (COVID-19 [4]): reduce the risk of intubation or death; mean concentration of fluoxetine in lungs [5]: 19.6 µg/g; TCID50 (infectious virus) [6]: reduced; genome copy number (qRT-PCR) [6]: reduced; TCID50 (infectious virus) [7]: reduced; genome copy number (qRT-PCR) [7]: reduced; TMPRSS2 mRNA level (TMPRSS2 [1]): increased; TCID50 (infectious virus) [8]: reduced; genome copy number (qRT-PCR) [8]: reduced; ACE2 protein level (ACE2 [9]): does not exert any effect on the ACE2 expression; TMPRSS2 protein level (TMPRSS2 [10]): significantly increased; also recorded: Despite not being statistically significant, fluoxetine also increased TMPRSS2; Calu-1 viability (ATP levels) (Calu-1 cells; human): slightly reduced the Calu-1 viability; ACE2 mRNA level (ACE2 [3]): remained unaltered |
| OCCN1CCN(CCC=C2c3ccccc3Sc3ccc(C(F)(F)F)cc32)CC1 [Flupenthixol] | 19.4 µM |  | Reduction |  |  |  |  |
| COCCCC/C(=N\OCCN)c1ccc(C(F)(F)F)cc1 [Fluvoxamine] | 75.3 µM |  | Reduction | bind to S1R |  |  | hospitalization risk due to COVID-19 (COVID-19 [11]): helps with the reduction of hospitalization risk |
| CN(C)CCCN1c2ccccc2CCc2ccccc21 [Imipramine] | 68.6 µM | All compounds, except for imipramine, decreased the cell viability | Reduction | bind to S1R | reducing the genome copies | failed to effect the TCID50 | cell viability (ATP level) [2]: reduced ATP levels |
| CNC1(c2ccccc2Cl)CCCCC1=O (stereo not shown) [Ketamine] |  |  |  |  |  |  | binding to S2R (S2R): can bind to both S1R and S2R; binding to S1R (Sigma-1 receptor (S1R); ref Robson et al., 2012): can bind to both S1R and S2R |
| Fc1ccc([C@@H]2CCNC[C@H]2COc2ccc3c(c2)OCO3)cc1 [Paroxetine] | 22.1 µM |  | Reduction | bind to S1R |  |  | Zaire Ebola virus (EBOV) entry to target cells (Zaire Ebola virus (EBOV)): reduce the Zaire Ebola virus (EBOV) entry |
| O=c1[nH]c2ccccc2n1C1CCN(CCCC(c2ccc(F)cc2)c2ccc(F)cc2)CC1 [Pimozide] | 15 µM |  | Reduction |  |  |  |  |
| CCOc1ccccc1OC(c1ccccc1)C1CNCCO1 (stereo not shown) [Reboxetine] |  |  |  |  | clearly reduced | clearly reduced |  |
| COc1ccc(C(CN(C)C)C2(O)CCCCC2)cc1 (stereo not shown) [Venlafaxine] |  | decreased the cell viability |  |  | ineffective | ineffective | affinity to S1R (Sigma-1 receptor (S1R); ref Ishima et al., 2014): very weak affinity; risk of intubation or death by COVID-19 (COVID-19 [4]): reduce the risk of intubation or death; CC50 [2]: No fitting; cell viability (ATP level) [2]: all the compounds, except (E) venlafaxine and (F) reboxetine reduced ATP levels |
| CN(C)CCC[C@@]1(c2ccc(F)cc2)OCc2cc(C#N)ccc21 [escitalopram] |  |  |  |  |  |  | risk of intubation or death by COVID-19 (COVID-19 [4]): reduce the risk of intubation or death |
| CN[C@H]1CC[C@@H](c2ccc(Cl)c(Cl)c2)c2ccccc21 [sertraline] |  |  |  | bind to S1R |  |  | Zaire Ebola virus (EBOV) entry to target cells (Zaire Ebola virus (EBOV)): reduce the Zaire Ebola virus (EBOV) entry |
